From ChEMBL document CHEMBL1147167, “New 1,3-dioxolane and 1,3-dioxane derivatives as effective modulators to overcome multidrug resistance” (2007)

System: Caco-2
Assay: Antiproliferative activity against human Caco-2 cells assessed as cell viability by MTT assay after 48 hrs
Type: functional
Details: not given

CN1CCN(CCCOc2ccc(C3O[C@H](c4ccccc4)[C@@H](c4ccccc4)O3)cc2)CC1 (relative stereo) was tested. Which IC10 did it give?
The IC10 was 19.5 µM.

With c1ccc(C(CCCCN2CCN(CCCOc3ccc(C4O[C@@H](c5ccccc5)[C@H](c5ccccc5)O4)cc3)CC2)c2ccccc2)cc1 (relative stereo) as the compound, how does the IC10 read?
Its IC10 is 15.9 µM.

Same assay, conditions: Homo sapiens, Caco-2, 48 h; read-out: IC10

Which IC10 does the source give for CN1CCN(CCCOc2ccc(C3OC(c4ccc(F)cc4)C(c4ccc(F)cc4)O3)cc2)CC1 (configuration not stated) here?
The IC10 was 18.8 µM.

How did the IC10 turn out when c1ccc(C2OC(c3ccc(OCCCN4CCCCC4)cc3)OC2c2ccccc2)cc1 (configuration not stated) was run?
The IC10 was 15.3 µM.

For c1ccc(C(CCCCN2CCN(CCCOc3ccc(C4O[C@@H](c5ccccc5)[C@H](c5ccccc5)O4)cc3)CC2)c2ccccc2)cc1, which IC10 is on record?
Its IC10 is 17.1 µM.

Which IC10 does the source give for CN1CCN(CCCOc2ccc(C3O[C@H](c4ccccc4)[C@H](c4ccccc4)O3)cc2)CC1 (some centres not stated) here?
The IC10 was 21.1 µM.

For OCCN1CCN(CCCCC2COC(c3ccccc3)(c3ccccc3)O2)CC1 (configuration not stated), which IC10 is on record?
The IC10 was 98.3 µM.

With CN1CCN(CCCN2c3ccccc3Sc3ccc(C(F)(F)F)cc32)CC1 [TRIFLUOPERAZINE] as the compound, how does the IC10 read?
The IC10 was 11.3 µM.

For CN1CCN(CCCOc2ccc(C3OC(c4ccccc4Cl)C(c4ccccc4Cl)O3)cc2)CC1 (configuration not stated), which IC10 is on record?
Its IC10 is 19.5 µM.

For CN1CCN(CCOc2ccc(C3OC(c4ccccc4)C(c4ccccc4)O3)cc2)CC1 (configuration not stated), which IC10 is on record?
Its IC10 is 8.6 µM.

Which IC10 does the source give for c1ccc(C2OC(c3ccc(OCCCN4CCN(C(c5ccccc5)c5ccccc5)CC4)cc3)OC2c2ccccc2)cc1 (configuration not stated) here?
The IC10 was 16.4 µM.

CN1CCN(CCCCC2COC(c3ccccc3)(c3ccccc3)O2)CC1 (configuration not stated) was tested. Which IC10 did it give?
The IC10 was 10.5 µM.

How did the IC10 turn out when c1ccc(C(CCCCN2CCN(CCCCOc3ccc(C4OC(c5ccccc5)C(c5ccccc5)O4)cc3)CC2)c2ccccc2)cc1 (configuration not stated) was run?
Its IC10 is 17.5 µM.

With OCCN1CCN(CCCOc2ccc(C3OC(c4ccccc4)C(c4ccccc4)O3)cc2)CC1 (configuration not stated) as the compound, how does the IC10 read?
Its IC10 is 76.6 µM.

With CN1CCN(CCCOc2ccc(C3O[C@H](c4ccccc4)[C@@H](c4ccccc4)O3)cc2)CC1 as the compound, how does the IC10 read?
The IC10 was 20.4 µM.

How did the IC10 turn out when c1ccc(C(CCCCN2CCN(CCCOc3ccc(C4O[C@H](c5ccccc5)[C@@H](c5ccccc5)O4)cc3)CC2)c2ccccc2)cc1 was run?
Its IC10 is 16.2 µM.

CN1CCN(CCCCOc2ccc(C3OC(c4ccccc4)C(c4ccccc4)O3)cc2)CC1 (configuration not stated) was tested. Which IC10 did it give?
The IC10 was 13.8 µM.

Which IC10 does the source give for CC1OC(c2ccccc2)(c2ccccc2)OCC1CN1CCN(C)CC1 (configuration not stated) here?
Its IC10 is 9.7 µM.

With c1ccc(C(CCCCN2CCN(CCOc3ccc(C4OC(c5ccccc5)C(c5ccccc5)O4)cc3)CC2)c2ccccc2)cc1 (configuration not stated) as the compound, how does the IC10 read?
The IC10 was 14.7 µM.

CN1CCN(CCCOc2ccc(C3O[C@@H](c4ccccc4)[C@H](c4ccccc4)O3)cc2)CC1 was tested. Which IC10 did it give?
The IC10 was 19.9 µM.

Which IC10 does the source give for CC1OC(c2ccccc2)(c2ccccc2)OCC1CN1CCN(CCCCC(c2ccccc2)c2ccccc2)CC1 (configuration not stated) here?
Its IC10 is 6.1 µM.

For c1ccc(C(CN2CCN(CCCOc3ccc(C4OC(c5ccccc5)C(c5ccccc5)O4)cc3)CC2)c2ccccc2)cc1 (configuration not stated), which IC10 is on record?
The IC10 was 6.1 µM.

For c1ccc(C(CCCCN2CCN(CCCCC3COC(c4ccccc4)(c4ccccc4)O3)CC2)c2ccccc2)cc1 (configuration not stated), which IC10 is on record?
The IC10 was 5.85 µM.

c1ccc(C2(c3ccccc3)OCC(CCCCN3CCCCC3)O2)cc1 (configuration not stated) was tested. Which IC10 did it give?
Its IC10 is 18.1 µM.

With c1ccc(C(CCCCN2CCN(CCCOc3ccc(C4O[C@H](c5ccccc5)[C@H](c5ccccc5)O4)cc3)CC2)c2ccccc2)cc1 (some centres not stated) as the compound, how does the IC10 read?
The IC10 was 16.8 µM.

For c1ccc(C(CCCN2CCN(CCCOc3ccc(C4OC(c5ccccc5)C(c5ccccc5)O4)cc3)CC2)c2ccccc2)cc1 (configuration not stated), which IC10 is on record?
The IC10 was 12.4 µM.

Which IC10 does the source give for c1ccc(C(CCN2CCN(CCCOc3ccc(C4OC(c5ccccc5)C(c5ccccc5)O4)cc3)CC2)c2ccccc2)cc1 (configuration not stated) here?
The IC10 was 18.5 µM.
